Experimental data from patent publication US11654036B2, “Anticoagulant compounds and methods and devices for their use” (priority 2020, dated 2023).
Read-outs that look alike come from different tables or passages of the source.

Experiments:
[1] = system: Calcium-reconstituted sheep blood; test: Activated clotting time (ACT); conditions: individual drug at 0.6 ng/mg
Experimental: The activated clotting time (ACT) evaluation of anticoagulants was performed in Calcium-reconstituted sheep blood and recorded employing the Hemochron® Response device. […] A target amount of drug solution was then added into the test tube. […] The tube was gently shaken before being inserted into the Hemochron Response detector. The ACT read out was recorded and reported. The ACT of the control blood in the absence of any drug as first determined to establish a baseline. Then ACT was determined in the presence of different concentrations of the drug as a single component. Selected drug combinations, were then tested to evaluate for potential synergy in action between the two drugs.

[2] = Coated balloon tissue concentration in vivo (Table 7); design: species or system porcine; conditions: for concentration at 15 min: 300 μg
From the text: The balloon (e.g., the balloon of a balloon-catheter of a stent-delivery system) was advanced to a site to be treated (e.g., an occluded or weakened section of a blood vessel to be opened up or supported by a stent) in the body of a subject and inflated to a desired inflation diameter. Before, during, and/or after inflation of the balloon, the balloon released the therapeutic composition to, into, or at the treatment site, or to, into, or at an area adjacent thereto, by any suitable mechanism (e.g., concentration gradient, diffusion, pressure, or mechanical force, or a combination thereof). […] The tissue concentration is shown in ng/mg tissue. The coated balloons were evaluated for drug delivery efficiency in an animal study. Drug transfer of the coated balloons into arterial segments were evaluated using harvested pig arteries. The arterial wall was separated after animal study. The arterial walls were then stored in an individual labeled vial. All samples were kept on dry ice until stored in the −80° C. freezer. All samples were then frozen to […] prior to being analyzed.

[3] = Tissue drug concentration in stented and adjacent artery segments (LCMS); type: in vivo, porcine; conditions: pig, artery tissue adjacent to the stented segment, other: drug eluting stent implanted in coronary artery, Table 4B, stent arm not named; for concentration at 3 h: within 3 hours; for concentration at 28 days: within 28 days; for concentration at 90 days: within 90 days
From the text: The stented artery was cut longitudinally with surgical scissors. The stents were separated from the tissue.

[4] = system: Tissue factor generated antiplatelet; conditions: cited from earlier work
[5] = system: Human Aortic SMC (HAoSMC); test: HAoSMC cell proliferation assay; type: cell-based; conditions: 72 hours incubation

concentration at 3 h [3] [ng/g] | concentration at 28 days [3] [ng/g] | Compound | ACT [1] | IC50 [4] [nM] | IC50 for Tissue factor generated antiplatelet [4] [ng/mg] | concentration at 90 days [3] [ng/g] | further results
 |  | COc1ccc(-n2nc(C(N)=O)c3c2C(=O)N(c2ccc(N4CCCCC4=O)cc2)CC3)cc1 [Apixaban] | 522 |  |  |  | 
 |  | CO[C@@H]1C[C@H](C[C@@H](C)[C@@H]2CC(=O)[C@H](C)/C=C(\C)[C@@H](O)[C@@H](OC)C(=O)[C@H](C)C[C@H](C)/C=C/C=C/C=C(\C)[C@@H](O)C[C@@H]3CC[C@@H](C)[C@@](O)(O3)C(=O)C(=O)N3CCCC[C@H]3C(=O)O2)CC[C@H]1O [Novolimus, 16-O-desmethyl-rapamycin] |  |  |  |  | tissue concentration of tissue adjacent to the balloon treated segment ([2]; Superficial Femoral Artery (SFA) tissue, within or at 6 hours): at least 5.94 ng/mg; tissue concentration of tissue adjacent to the balloon treated segment ([2]; Superficial Femoral Artery (SFA) tissue, within or at 3 day): at least 4.4 ng/mg; tissue concentration of tissue adjacent to the balloon treated segment ([2]; Superficial Femoral Artery (SFA) tissue, within or at 7 days): at least 1.16 ng/mg; tissue concentration of tissue adjacent to the balloon treated segment ([2]; coronary artery tissue, within or at 6 hours): at least 6.52 ng/mg; tissue concentration of tissue adjacent to the balloon treated segment ([2]; coronary artery tissue, within or at 3 day): at least 3.77 ng/mg; tissue concentration of tissue adjacent to the balloon treated segment ([2]; coronary artery tissue, within or at 7 days): at least 1.47 ng/mg
~21000 | ~340 | O=C(NC[C@H]1CN(c2ccc(N3CCOCC3=O)cc2)C(=O)O1)c1ccc(Cl)s1 [Rivaroxaban] |  | 312 | 0.136 |  | concentration at 15 min ([2]; pig, Superficial Femoral Artery (SFA) tissue, within or at 15 minutes, read-out: tissue concentration of tissue adjacent to the balloon treated segment): ≥ 40600 ng/g; concentration at 15 min ([2]; pig, coronary artery tissue, within or at 15 min, read-out: tissue concentration of tissue adjacent to the balloon treated segment): ≥ 1230 ng/g; concentration at 1 h ([3]; within one hour from injury and/or implant): ~38000 ng/g
 |  | CC1CNc2c(cccc2S(=O)(=O)N[C@@H](CCCNC(=N)N)C(=O)N2CC[C@@H](C)C[C@@H]2C(=O)O)C1 (some centres unmarked) [Argatroban] | 301 | 79 | 0.04 | ~3740 | HAoSMC proliferation inhibition [5]: small to no inhibition
~27000 | ~940 | CO[C@H]1C[C@@H]2CC[C@@H](C)[C@@](O)(O2)C(=O)C(=O)N2CCCC[C@H]2C(=O)O[C@H]([C@H](C)C[C@@H]2CC[C@@H](O)[C@H](OC)C2)CC(=O)[C@H](C)/C=C(\C)[C@@H](O)[C@@H](OC)C(=O)[C@H](C)C[C@H](C)/C=C/C=C/C=C/1C [Sirolimus, rapamycin (also called sirolimus)] |  |  |  | ~1280 | concentration at 7 days ([2]; pig, coronary artery tissue, within or at 7 days, read-out: tissue concentration of tissue adjacent to the balloon treated segment): ≥ 1450 ng/g
